{"source": "patent US20100298141A1", "about": "“SUBSTITUTED PYRIDINE N-OXIDE HERBICIDES” (E. I. DU PONT DE NEMOURS AND COMPANY, priority 2007, published 2010)", "assay_in_all_cases": "Test F preemergence test", "settings_in_all_cases": "scale 0 to 100", "key": {"dallisgrass": {"test_system": "dallisgrass", "type": "in vivo, Paspalum dilatatum", "method_in_brief": "(§1)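 Preemergence application to planted seeds, or postemergence to sugarcane plants; compound in non-phytotoxic solvent mix plus surfactant. Greenhouse, 14-21 days. Visual rating vs. controls.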"}, "Virginia dayflower": {"test_system": "Virginia dayflower", "type": "in vivo, Commelina virginica", "method_in_brief": "as §1"}, "quackgrass": {"test_system": "quackgrass", "type": "in vivo, Elytrigia repens", "method_in_brief": "as §1"}, "kochia": {"test_system": "kochia", "type": "in vivo, Kochia scoparia", "method_in_brief": "as §1"}, "pitted morningglory": {"test_system": "pitted morningglory", "type": "in vivo, Ipomoea lacunosa", "description": "(§2) Seeds of plant species selected from bermudagrass (Cynodon dactylon), Surinam grass (Brachiaria decumbens), large crabgrass (Digitaria sanguinalis), green foxtail (Setaria viridis), goosegrass (Eleusine indica), johnsongrass (Sorghum halepense), kochia (Kochia scoparia), pitted morningglory (Ipomoea lacunosa), purple nutsedge (Cyperus rotundus), common ragweed (Ambrosia elation), mustard (Brassica nigra), guineagrass (Panicum maximum), […] (Paspalum dilatatum), barnyardgrass (Echinochloa crus-galli), southern sandbur (Cenchrus echinatus), common sowthistle (Sonchus oleraceous), prickly […] spinosa), Italian ryegrass (Lolium multiflorum), common purslane (Portulaca oleracea), broadleaf signalgrass (Brachiaria platyphylla), common groundsel (Senecio vulgaris), common chickweed (Stellaria media), Virginia dayflower (Commelina virginica), annual bluegrass (Poa annua), naked crabgrass (Digitaria nuda), […] cochinchinensis), quackgrass (Elytrigia repens), Canada horseweed (Conyza canadensis), field bindweed (Convolvulus arvensis), […] (Bidens bipinnata), common mallow (Malva sylvestris), Russian thistle (Salsola kali), and sugarcane (Saccharum officinarum) were planted and treated preemergence with test chemicals formulated in a non-phytotoxic solvent mixture which included a surfactant. At a different time, sugarcane was treated with postemergence applications of some of the test chemicals formulated in the same manner. Plants were approximately 3- to 4-leaf stage for the postemergence treatments. Treated plants and controls were maintained in a greenhouse for 14 to 21 days, after which time all species were compared to controls and visually evaluated. […] A dash (-) response means no test result."}, "annual bluegrass": {"test_system": "annual bluegrass", "type": "in vivo, Poa annua", "method_in_brief": "as §1"}, "common chickweed": {"test_system": "common chickweed", "type": "in vivo, Stellaria media", "description": "as §2"}, "bermudagrass": {"test_system": "bermudagrass", "type": "in vivo, Cynodon dactylon", "method_in_brief": "as §1"}, "naked crabgrass": {"test_system": "naked crabgrass", "type": "in vivo, Digitaria nuda", "method_in_brief": "as §1"}, "broadleaf signalgrass": {"test_system": "broadleaf signalgrass", "type": "in vivo, Brachiaria platyphylla", "method_in_brief": "as §1"}, "prickly sida": {"test_system": "prickly sida", "type": "in vivo, Sida spinosa", "method_in_brief": "as §1"}, "barnyardgrass": {"test_system": "barnyardgrass", "type": "in vivo, Echinochloa crus-galli", "method_in_brief": "as §1"}, "mustard": {"test_system": "mustard", "type": "in vivo, Brassica nigra", "method_in_brief": "as §1"}, "purple nutsedge": {"test_system": "purple nutsedge", "type": "in vivo, Cyperus rotundus", "method_in_brief": "as §1"}, "common mallow": {"test_system": "common mallow", "type": "in vivo, Malva sylvestris", "description": "as §2"}, "common purslane": {"test_system": "common purslane", "type": "in vivo, Portulaca oleracea", "method_in_brief": "as §1"}, "common groundsel": {"test_system": "common groundsel", "type": "in vivo, Senecio vulgaris", "method_in_brief": "as §1"}, "guineagrass": {"test_system": "guineagrass", "type": "in vivo, Panicum maximum", "method_in_brief": "as §1"}}}
{"smiles": "Cc1cc[n+]([O-])c([S+]([O-])Cc2c(C(F)(F)F)nn(C)c2OC(F)F)c1", "note": "(stereo not drawn) [Compound 1]", "values": [{"measurement": "Plant response rating, Dallisgrass", "setting": "dallisgrass; 8 g ai/ha, preemergence", "result": 0}, {"measurement": "Dallisgrass plant response rating", "setting": "dallisgrass; 62 g ai/ha, Preemergence", "result": 50}, {"measurement": "Plant response rating, Dallisgrass", "setting": "dallisgrass; Preemergence, 16 g ai/ha", "result": 0}, {"measurement": "Plant response rating, Dallisgrass", "setting": "dallisgrass; Preemergence, 31 g ai/ha", "result": 20}, {"measurement": "Plant response rating, Dayflower", "setting": "Virginia dayflower; 8 g ai/ha, preemergence", "result": 0}, {"measurement": "Dayflower plant response rating", "setting": "Virginia dayflower; 62 g ai/ha, Preemergence", "result": 100}, {"measurement": "Plant response rating, Dayflower", "setting": "Virginia dayflower; Preemergence, 16 g ai/ha", "result": 0}, {"measurement": "Plant response rating, Dayflower", "setting": "Virginia dayflower; Preemergence, 31 g ai/ha", "result": 80}, {"measurement": "Plant response rating, Quackgrass", "setting": "quackgrass; 8 g ai/ha, preemergence", "result": 0}, {"measurement": "Quackgrass plant response rating", "setting": "quackgrass; 62 g ai/ha, Preemergence", "result": 65}, {"measurement": "Plant response rating, Quackgrass", "setting": "quackgrass; Preemergence, 16 g ai/ha", "result": 35}, {"measurement": "Plant response rating, Quackgrass", "setting": "quackgrass; Preemergence, 31 g ai/ha", "result": 50}, {"measurement": "Plant response rating, Kochia", "setting": "kochia; 8 g ai/ha, preemergence", "result": 0}, {"measurement": "Kochia plant response rating", "setting": "kochia; 62 g ai/ha, Preemergence", "result": 90}, {"measurement": "Plant response rating, Kochia", "setting": "kochia; Preemergence, 16 g ai/ha", "result": 0}, {"measurement": "Plant response rating, Kochia", "setting": "kochia; Preemergence, 31 g ai/ha", "result": 35}, {"measurement": "Plant response rating, Morningglory", "setting": "pitted morningglory; 8 g ai/ha, preemergence", "result": 0}, {"measurement": "Morningglory plant response rating", "setting": "pitted morningglory; 62 g ai/ha, Preemergence", "result": 95}, {"measurement": "Plant response rating, Morningglory", "setting": "pitted morningglory; Preemergence, 16 g ai/ha", "result": 10}, {"measurement": "Plant response rating, Morningglory", "setting": "pitted morningglory; Preemergence, 31 g ai/ha", "result": 75}, {"measurement": "Plant response rating, Bluegrass", "setting": "annual bluegrass; 8 g ai/ha, preemergence", "result": 0}, {"measurement": "Bluegrass plant response rating", "setting": "annual bluegrass; 62 g ai/ha, Preemergence", "result": 75}, {"measurement": "Plant response rating, Bluegrass", "setting": "annual bluegrass; Preemergence, 16 g ai/ha", "result": 0}, {"measurement": "Plant response rating, Bluegrass", "setting": "annual bluegrass; Preemergence, 31 g ai/ha", "result": 25}, {"measurement": "Plant response rating, Chickweed", "setting": "common chickweed; 8 g ai/ha, preemergence", "result": 40}, {"measurement": "Chickweed plant response rating", "setting": "common chickweed; 62 g ai/ha, Preemergence", "result": 100}, {"measurement": "Plant response rating, Chickweed", "setting": "common chickweed; Preemergence, 16 g ai/ha", "result": 60}, {"measurement": "Plant response rating, Chickweed", "setting": "common chickweed; Preemergence, 31 g ai/ha", "result": 98}, {"measurement": "Plant response rating, Bermudagrass", "setting": "bermudagrass; 8 g ai/ha, preemergence", "result": 0}, {"measurement": "Bermudagrass plant response rating", "setting": "bermudagrass; 62 g ai/ha, Preemergence", "result": 80}, {"measurement": "Plant response rating, Bermudagrass", "setting": "bermudagrass; Preemergence, 16 g ai/ha", "result": 40}, {"measurement": "Plant response rating, Bermudagrass", "setting": "bermudagrass; Preemergence, 31 g ai/ha", "result": 40}, {"measurement": "Plant response rating, Crabgrass, Naked", "setting": "naked crabgrass; 8 g ai/ha, preemergence", "result": 0}, {"measurement": "Crabgrass, Naked plant response rating", "setting": "naked crabgrass; 62 g ai/ha, Preemergence", "result": 100}, {"measurement": "Plant response rating, Crabgrass, Naked", "setting": "naked crabgrass; Preemergence, 16 g ai/ha", "result": 15}, {"measurement": "Plant response rating, Crabgrass, Naked", "setting": "naked crabgrass; Preemergence, 31 g ai/ha", "result": 90}, {"measurement": "Plant response rating, Signalgrass", "setting": "broadleaf signalgrass; 8 g ai/ha, preemergence", "result": 0}, {"measurement": "Plant response rating, Signalgrass", "setting": "broadleaf signalgrass; 16 g ai/ha, preemergence", "result": 0}, {"measurement": "Signalgrass plant response rating", "setting": "broadleaf signalgrass; 62 g ai/ha, Preemergence", "result": 50}, {"measurement": "Plant response rating, Signalgrass", "setting": "broadleaf signalgrass; Preemergence, 31 g ai/ha", "result": 25}, {"measurement": "Plant response rating, Prickly Sida", "setting": "prickly sida; 8 g ai/ha, preemergence", "result": 0}, {"measurement": "Prickly Sida plant response rating", "setting": "prickly sida; 62 g ai/ha, Preemergence", "result": 80}, {"measurement": "Plant response rating, Prickly Sida", "setting": "prickly sida; Preemergence, 16 g ai/ha", "result": 20}, {"measurement": "Plant response rating, Prickly Sida", "setting": "prickly sida; Preemergence, 31 g ai/ha", "result": 60}, {"measurement": "Plant response rating, Barnyardgrass", "setting": "barnyardgrass; 8 g ai/ha, preemergence", "result": 5}, {"measurement": "Barnyardgrass plant response rating", "setting": "barnyardgrass; 62 g ai/ha, Preemergence", "result": 90}, {"measurement": "Plant response rating, Barnyardgrass", "setting": "barnyardgrass; Preemergence, 16 g ai/ha", "result": 60}, {"measurement": "Plant response rating, Barnyardgrass", "setting": "barnyardgrass; Preemergence, 31 g ai/ha", "result": 80}, {"measurement": "Plant response rating, Black Mustard", "setting": "mustard; 8 g ai/ha, preemergence", "result": 0}, {"measurement": "Black Mustard plant response rating", "setting": "mustard; 62 g ai/ha, Preemergence", "result": 100}, {"measurement": "Plant response rating, Black Mustard", "setting": "mustard; Preemergence, 16 g ai/ha", "result": 0}, {"measurement": "Plant response rating, Black Mustard", "setting": "mustard; Preemergence, 31 g ai/ha", "result": 80}, {"measurement": "Plant response rating, Purple Nutsedge", "setting": "purple nutsedge; 8 g ai/ha, preemergence", "result": 0}, {"measurement": "Purple Nutsedge plant response rating", "setting": "purple nutsedge; 62 g ai/ha, Preemergence", "result": 60}, {"measurement": "Plant response rating, Purple Nutsedge", "setting": "purple nutsedge; Preemergence, 16 g ai/ha", "result": 0}, {"measurement": "Plant response rating, Purple Nutsedge", "setting": "purple nutsedge; Preemergence, 31 g ai/ha", "result": 60}, {"measurement": "Plant response rating, Mallow", "setting": "common mallow; 8 g ai/ha, preemergence", "result": 0}, {"measurement": "Mallow plant response rating", "setting": "common mallow; 62 g ai/ha, Preemergence", "result": 100}, {"measurement": "Plant response rating, Mallow", "setting": "common mallow; Preemergence, 16 g ai/ha", "result": 0}, {"measurement": "Plant response rating, Mallow", "setting": "common mallow; Preemergence, 31 g ai/ha", "result": 70}, {"measurement": "Plant response rating, Purslane", "setting": "common purslane; 8 g ai/ha, preemergence", "result": 0}, {"measurement": "Purslane plant response rating", "setting": "common purslane; 62 g ai/ha, Preemergence", "result": 80}, {"measurement": "Plant response rating, Purslane", "setting": "common purslane; Preemergence, 16 g ai/ha", "result": 35}, {"measurement": "Plant response rating, Purslane", "setting": "common purslane; Preemergence, 31 g ai/ha", "result": 60}, {"measurement": "Plant response rating, Groundsel", "setting": "common groundsel; 8 g ai/ha, preemergence", "result": 0}, {"measurement": "Groundsel plant response rating", "setting": "common groundsel; 62 g ai/ha, Preemergence", "result": 35}, {"measurement": "Plant response rating, Groundsel", "setting": "common groundsel; Preemergence, 16 g ai/ha", "result": 20}, {"measurement": "Plant response rating, Groundsel", "setting": "common groundsel; Preemergence, 31 g ai/ha", "result": 35}, {"measurement": "Plant response rating, Guineagrass", "setting": "guineagrass; 8 g ai/ha, preemergence", "result": 65}, {"measurement": "Guineagrass plant response rating", "setting": "guineagrass; 62 g ai/ha, Preemergence", "result": 100}, {"measurement": "Plant response rating, Guineagrass", "setting": "guineagrass; Preemergence, 16 g ai/ha", "result": 80}, {"measurement": "Plant response rating, Guineagrass", "setting": "guineagrass; Preemergence, 31 g ai/ha", "result": 80}]}
